Test results reported in patent publication US7153874B2, “Imidazole derivatives” (Hoffmann-La Roche Inc., priority 2003, dated 2006).
Structures can show the parent of a compound that is named as a salt.

System: not given
Experiment: not given
Settings: not given
Compound `COc1cc(-n2cc(C#Cc3ccnc(C)c3)nc2C)ccn1` (as salt: HCl) [Compound 69, 2-Methoxy-4-[2-methyl-4-(2-methyl-pyridin-4-ylethynyl)-imidazol-1-yl]-pyridine] has a melting point of 145 to 147 °C. Compound `Cc1cc(C#Cc2cn(-c3ccc(F)cc3)c(C)n2)ccn1` [Compound 1, 4-[1-(4-Fluoro-phenyl)-2-methyl-1H-imidazol-4-ylethynyl]-2-methyl-pyridine] has a melting point of 151 °C. `Cc1cc(C#Cc2cn(-c3ncccn3)c(C)n2)ccn1` [Compound 8, 2-[2-Methyl-4-(2-methyl-pyridin-4-ylethynyl)-imidazol-1-yl]-pyrimidine] gave a melting point of 164 to 165 °C.

Biological target: T1, human mGlu 5a receptor (Homo sapiens, UniProt P41594)
T1 construct: expressed in transfected cells; host or cells: EBNA cells (transient transfection); cell membrane homogenates
T1 sequence (P41594 21-1180 isoform P41594-2 limits assumed): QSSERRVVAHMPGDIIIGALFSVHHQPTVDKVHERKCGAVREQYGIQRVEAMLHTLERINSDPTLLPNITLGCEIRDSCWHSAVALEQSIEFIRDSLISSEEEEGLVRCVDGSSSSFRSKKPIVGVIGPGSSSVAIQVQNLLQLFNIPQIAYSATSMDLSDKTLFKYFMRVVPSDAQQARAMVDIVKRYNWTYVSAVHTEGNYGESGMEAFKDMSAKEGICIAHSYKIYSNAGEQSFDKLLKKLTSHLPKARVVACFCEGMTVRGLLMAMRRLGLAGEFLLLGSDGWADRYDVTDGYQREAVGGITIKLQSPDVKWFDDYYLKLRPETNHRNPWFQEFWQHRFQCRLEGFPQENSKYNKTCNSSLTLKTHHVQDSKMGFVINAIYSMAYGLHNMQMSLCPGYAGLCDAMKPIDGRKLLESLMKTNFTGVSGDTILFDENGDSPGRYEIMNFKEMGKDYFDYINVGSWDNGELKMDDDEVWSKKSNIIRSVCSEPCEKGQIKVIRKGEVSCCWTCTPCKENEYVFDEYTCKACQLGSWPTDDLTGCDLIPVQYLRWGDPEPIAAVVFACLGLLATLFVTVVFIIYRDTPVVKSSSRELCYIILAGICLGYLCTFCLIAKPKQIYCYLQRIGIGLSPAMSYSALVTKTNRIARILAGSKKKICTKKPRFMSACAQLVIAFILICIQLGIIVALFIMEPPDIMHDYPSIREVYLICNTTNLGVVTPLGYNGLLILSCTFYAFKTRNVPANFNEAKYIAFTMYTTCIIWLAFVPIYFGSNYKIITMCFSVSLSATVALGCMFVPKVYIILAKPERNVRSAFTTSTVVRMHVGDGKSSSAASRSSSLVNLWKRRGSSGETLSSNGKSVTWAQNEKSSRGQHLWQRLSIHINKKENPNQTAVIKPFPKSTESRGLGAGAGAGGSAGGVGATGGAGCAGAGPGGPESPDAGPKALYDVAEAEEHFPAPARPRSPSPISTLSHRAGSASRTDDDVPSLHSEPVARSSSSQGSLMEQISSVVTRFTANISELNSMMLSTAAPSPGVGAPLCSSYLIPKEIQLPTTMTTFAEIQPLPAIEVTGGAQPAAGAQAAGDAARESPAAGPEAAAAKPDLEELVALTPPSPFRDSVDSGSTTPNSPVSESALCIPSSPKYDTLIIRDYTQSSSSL
Experiment: [3H]MPEP competition binding on membranes of EBNA cells transfected with human mGlu 5a receptor
Settings: read-out: Ki (mGluR5)
Method: For binding experiments, cDNA encoding human mGlu 5a receptor was transiently transfected into EBNA cells using a procedure described by Schlaeger and Christensen [Cyto-technology 15:1–13 (1998)]. Cell membrane homogenates were stored at −80° C. until the day of assay where upon they were thawed and resuspended and polytronised in 15 mM Tris-HCl, 120 mM NaCl, 100 mM KCl, 25 mM CaCl2, 25 mM MgCl2 binding buffer at pH 7.4 to a final assay concentration of 20 μg protein/well.
Saturation isotherms were determined by addition of twelve [^3H]MPEP concentrations (0.04–100 nM) to these membranes (in a total volume of 200 μl) for 1 h at 4° C. Competition experiments were performed with a fixed concentration of [^3H]MPEP (2 nM) and IC50 values of test compounds evaluated using 11 concentrations (0.3–10,000 nM). Incubations were performed for 1 h at 4° C.
At the end of the incubation, membranes were filtered onto unifilter (96-well white microplate with bonded GF/C filter preincubated 1 h in 0.1% PEI in wash buffer, Packard BioScience, Meriden, Conn.) with a Filtermate 96 harvester (Packard BioScience) and washed 3 times with cold 50 mM Tris-HCl, pH 7.4 buffer. Nonspecific binding was measured in the presence of 10 μM MPEP. The radioactivity on the filter was counted (3 min) on a Packard Top-count microplate scintillation counter with quenching correction after addition of 45 μl of microscint 40 (Canberra Packard S. A., Zürich, Switzerland) and shaking for 20 min.
The inhibition (antagonists) curves were fitted with a four parameter logistic equation giving IC50, and Hill coefficient using an iterative non linear curve fitting software (Xcel fit).
The Ki value is defined by the following formula: Ki=IC50/[1+L/Kd] in which the IC50 values are those concentrations of the compounds tested which cause 50% inhibition of the competing radioligand ([^3H]MPEP). L is the concentration of radioligand used in the binding experiment and the Kd value of the radioligand is empirically determined for each batch of membranes prepared.
Work on `Cc1cc(C#Cc2cn(-c3ccc(Cl)c(Cl)c3)c(C)n2)ccn1` [Compound 2, 4-[1-(3,4-Dichloro-phenyl)-2-methyl-1H-imidazol-4-ylethynyl]-2-methyl-pyridine hydrochloride] yielded a Ki of 18 nM. `Cc1cc(C#Cc2cn(-c3ccc(F)c(F)c3)c(C)n2)ccn1` [Compound 4, 4-[1-(3,4-difluoro-phenyl)-2-methyl-1H-imidazol-4-ylethynyl]-2-methyl-pyridine] gave a Ki of 25 nM. Compound `Cc1cc(C#Cc2cn(-c3cccc(C(F)(F)F)c3)c(C)n2)ccn1` [Compound 7, 2-methyl-4-[2-methyl-1-(3-trifluoromethyl-phenyl)-1H-imidazol-4-ylethynyl]-pyridine] has a Ki of 24 nM. `Cc1cc(C#Cc2cn(-c3ncccn3)c(C)n2)ccn1` [Compound 8, 2-[2-Methyl-4-(2-methyl-pyridin-4-ylethynyl)-imidazol-1-yl]-pyrimidine] gave a Ki of 74 nM. `Cc1cc(C#Cc2cn(-c3ccc4c(ccn4C)c3)c(C)n2)ccn1` [Compound 18, 1-methyl-5-[2-methyl-4-(2-methyl-pyridin-4-ylethynyl)-imidazol-1-yl]-1H-indole] gave a Ki of 45 nM. Work on `Cc1cc(C#Cc2cn(-c3nccc(C(F)(F)F)n3)c(C)n2)ccn1` [Compound 21, 2-[2-methyl-4-(2-methyl-pyridin-4-ylethynyl)-imidazol-1-yl]-4-trifluoromethyl-pyrimidine] yielded a Ki of 17 nM. With `COc1ccnc(-n2cc(C#Cc3ccnc(C)c3)nc2C)n1` [Compound 22, 4-methoxy-2-[2-methyl-4-(2-methyl-pyridin-4-ylethynyl)-imidazol-1-yl]-pyrimidine] the Ki was 18 nM. In the case of `Cc1cc(C#Cc2cn(-c3nccc(Cl)n3)c(C)n2)ccn1` [Compound 29, 4-chloro-2-[2-methyl-4-(2-methyl-pyridin-4-ylethynyl)-imidazol-1-yl]-pyrimidine], the Ki is reported as 25 nM. For `Cc1cc(C#Cc2cn(-c3cncc(C4CC4)n3)c(C)n2)ccn1` [Compound 56, 2-cyclopropyl-6-[2-methyl-4-(2-methyl-pyridin-4-ylethynyl)-imidazol-1-yl]-pyrazine], the Ki was 27 nM. Work on `Cc1cc(C#Cc2cn(-c3cccc(C4CC4)n3)c(C)n2)ccn1` [Compound 57, 2-cyclopropyl-6-[2-methyl-4-(2-methyl-pyridin-4-ylethynyl)-imidazol-1-yl]-pyridine] yielded a Ki of 16 nM. Compound `COc1cccc(-n2cc(C#Cc3ccnc(C)c3)nc2C)n1` [Compound 68, 2-Methoxy-6-[2-methyl-4-(2-methyl-pyridin-4-ylethynyl)-imidazol-1-yl]-pyridine] has a Ki of 18 nM. For `Cc1cc(C#Cc2cn(-c3cccc(N(C)C)n3)c(C)n2)ccn1` [Compound 71, dimethyl-{6-[2-methyl-4-(2-methyl-pyridin-4-ylethynyl)-imidazol-1-yl]-pyridin-2-yl}-amine], the Ki was 19 nM. With `Cc1cc(C#Cc2nc(C)n(-c3ccc(F)cc3)c2C)ccn1` [Compound 88, 4-[1-(4-Fluoro-phenyl)-2,5-dimethyl-1H-imidazol-4-ylethynyl]-2-methyl-pyridine] the Ki was 33 nM. `Cc1cc(C#Cc2nc(C)n(-c3ccc(F)cc3)c2C=O)ccn1` [Compound 89, 3-(4-Fluoro-phenyl)-2-methyl-5-(2-methyl-pyridin-4-ylethynyl)-3H-imidazole-4-carbaldehyde] showed a Ki of 65 nM.
